Reference: PubChem BioAssay AID2305 (GlaxoSmithKline (GSK), 2010)
Several values for one entry are separate records, joined by “and”; a condition that tells them apart may be missing. Equal values may be shown once.

Tested on: P. falciparum 3D7 growth, pLDH absorbance
Test: P. falciparum 3D7 growth inhibition, dose response, strain 3D7 (AID 2305)

Row | SMILES | IC50
1 | Clc1ccc(C=NNc2ccnc3ccccc23)cc1 | 720 nM
2 | Nc1ccc(-c2nc3ccc(Cc4ccc5nc(-c6ccc(N)cc6)[nH]c5c4)cc3[nH]2)cc1 | 510 nM
3 | Cc1[nH]c(C)c(-c2ccc(Oc3ccc(OC(F)(F)F)cc3)cc2)c(=O)c1Br | 560 nM and 110 nM
4 | Cc1ccc2nc(-c3ccc(C=CC(=O)NCc4ccc(Cl)c(Cl)c4)cc3)[nH]c2c1 | 900 nM
5 | COc1ccc(-c2cccc(NC(=O)c3cccc(F)c3)c2)cc1CN1CCCN(C)CC1 | 600 nM
6 | O=C(Nc1ccc(-c2cccc(-c3nc4ccc(C(F)(F)F)cc4[nH]3)c2)cc1)Nc1ccc(Cl)c(Cl)c1 | 750 nM
7 | CCN(CC)S(=O)(=O)c1ccc(C(=O)Oc2ccccc2N(Cc2ccc(OC)cc2)C2=NS(=O)(=O)c3ccccc32)cc1 | 580 nM
8 | CCC(C)c1cccc(C(C)CC)c1OCCCON1C(N)=NC(N)=NC1(C)C (centres undefined) | 20 nM
9 | Cc1cc(Cl)c(S(=O)(=O)N2CCc3ccccc32)cc1OCC(=O)NC1CCCCC1 | 300 nM
10 | O=C(Nc1ccccc1-c1nc2ccccc2s1)C(Cl)(Cl)Cl | 640 nM
11 | CCN(C1CCCCC1)S(=O)(=O)c1ccc(OC)c(N2CCN(C(=O)C(Cl)(Cl)Cl)CC2)c1 | 630 nM
12 | COc1ccc2ncc(F)c(CCN3C[C@H](CNCc4ccc5c(n4)NC(=O)CS5)[C@H](O)C3)c2c1 | 780 nM
13 | C=CCn1ccc2c3c(N)nc(N)nc3ccc21 | 70 nM
14 | C=C[C@H]1CN2CC[C@H]1C[C@@H]2[C@@H](O)c1ccnc2ccccc12 | 770 nM
15 | Cc1ccc(CNC(=O)[C@H](Cc2ccccc2)Nc2cc(C)nc(Nc3ccccc3)n2)cc1 | 850 nM
16 | Oc1ccccc1CN[C@@H]1CCCC[C@H]1NCc1ccccc1O | 950 nM
17 | O=C(NCCCN1CCCCC1)c1cccc(Nc2nccc(Nc3ccc(Oc4ccccc4)cc3)n2)c1 | 820 nM
18 | O=C(COc1cnc2ccccc2n1)Nc1ccccc1Sc1ccc(Cl)cc1 | 730 nM
19 | COc1ccc2nccc([C@@H](O)CN3CCC(NC(=O)c4ccc(Cl)c(OC)c4)CC3)c2c1 | 790 nM
20 | COc1cccc(CCc2nc3c(N4CCC(Cc5ccccc5)CC4)cccc3n2CC2CNCCO2)c1 (centres undefined) | 800 nM
21 | COc1cc(C(=O)N2CCOC(CCN3CCC(c4ccc(Cl)cc4)CC3)(c3ccc(Cl)c(Cl)c3)C2)cc(OC)c1OC (centres undefined) | 180 nM
22 | O=C(NCCCCN1CCC(c2ccc3c(c2OCCO)CCCC3)CC1)c1ccc2oc(-c3ccc(C(F)(F)F)cc3)cc2c1 | 340 nM
23 | COc1c(C2CCN(CCN3CCC(CNC(=O)c4ccc(-c5ccc(C#N)cc5)cc4)CC3)CC2)ccc2c1CCCC2 | 460 nM
24 | CC(C)C(NC(=O)c1c(F)cccc1F)C(=O)Nc1ccc(Cc2nc3ccccc3s2)cc1 (centres undefined) | 450 nM

Row | SMILES | IC50
25 | Nc1nccc(-c2ccc3c(/C=C/c4ccccc4)cnc(N)c3c2)n1 | 620 nM
26 | CCCNCc1ccc(-c2ccc(CN(Cc3ccc4c(c3)OCO4)C(=O)[C@H]3CCCO3)cc2)nc1 | 810 nM
27 | COc1ccc(Cl)cc1N1CCN(CCCNC(=O)c2ccc(-c3nc4cc(Cl)c(F)cc4[nH]3)c(F)c2)CC1 | 1110 nM
28 | CCCCCN1CCC(NS(=O)(=O)c2cccc(C(=O)Nc3cccc(C(F)(F)F)c3)c2)C1 (centres undefined) | 830 nM
29 | Cc1[nH]c(C)c(-c2ccc(OCCSc3ccncc3)cc2)c(=O)c1Br | 390 nM
30 | O=C(/C=C/c1ccc(Cl)cc1)NCCCCCN1CCCN(C(=O)Nc2ccc(F)c(Cl)c2)CC1 | 780 nM
31 | COc1ccc2nccc(NC(=O)C3CCC(NCc4cnc(SC)c([N+](=O)[O-])c4)CC3)c2n1 (centres undefined) | 930 nM
32 | COC(=O)c1cccc(CNCc2ccc(-c3cccc(-c4nc5c(C)cccc5[nH]4)c3)cc2)c1 | 310 nM
33 | O=C(Nc1ccc(-c2csc(-c3nc4ccccc4[nH]3)c2)cc1)Nc1ccc(Cl)c(Cl)c1 | 400 nM
34 | O=c1[nH]nc(-c2ccc(N3CCCC3)c([N+](=O)[O-])c2)c2ccccc12 | 630 nM
35 | COc1ccc2nc3cc(Cl)ccc3c(NCCNCC(O)CO)c2n1 (centres undefined) | 150 nM
36 | CN(C)CCn1c(N)c(-c2nc3ccccc3s2)c2nc(C#N)c(C#N)nc21 | 1010 nM
37 | Cc1ccc(CN2CCCN(Cc3cccc(NC(=O)c4ccc(Cl)c(Cl)c4)c3)CC2)cc1 | 900 nM
38 | CC(CCc1ccccc1)NCC(O)c1ccc2c(c1)S(=O)(=O)c1ccccc1N2 (centres undefined) | 1220 nM
39 | COC(=O)Cn1c(C2CCN(CC3CCC(NC(=O)/C=C/c4ccc(Cl)c(Cl)c4)CC3)CC2)nc2ccccc21 (centres undefined) | 1140 nM
40 | CCn1c(SCc2ccccc2)nc2c1c(=O)[nH]c(=O)n2C | 240 nM
41 | COC(C(=O)OCCC1CCCN1C)(c1ccccc1)c1ccccc1 (centres undefined) | 970 nM
42 | O=C(Nc1cccc(CN2CCCN(Cc3ccc(O)cc3)CC2)c1)c1ccc2ccccc2c1 | 370 nM
43 | O=C(NC1CC1)c1ccc(N2CCCCN2CCc2ccccc2)c(C(F)(F)F)c1 | 620 nM
44 | Cc1ccc(CNC(=O)c2cc3c(=O)n4ccccc4nc3n(CCCN3CCOCC3)c2=N)cc1 | 1090 nM
45 | COc1cccc(CNC(=O)c2cccc(-c3ccc(CN4CCC(N5CCCC5)CC4)cc3)n2)c1 | 1790 nM
46 | CO/C(=C\C=C\c1cc2cc(Cl)c(Cl)cc2[nH]1)C(=O)NCCCN(C)CCN(C)c1ccccc1 | 830 nM
47 | Cc1nc2c(Nc3nc(-c4ccncc4)cs3)ncnc2n1-c1ccccc1Cl | 180 nM
48 | CCCc1ccc(S(=O)(=O)NC2CCN(c3ccnc(Nc4ccc(OC)cc4)n3)C2)cc1 (centres undefined) | 1190 nM

Row | SMILES | IC50
49 | CN(C)Cc1ccc2cc(NC(=O)c3ccc(-c4ccc(Cl)cc4)cc3)ccc2c1 | 1340 nM
50 | C[C@H](Cc1ccc(OCCCCOc2ccc(C[C@@H](C)NC[C@H](O)c3cccc(Cl)c3)cc2)cc1)NC[C@H](O)c1cccc(Cl)c1 | 760 nM
51 | CN(Cc1cnc2nc(N)nc(N)c2n1)c1ccc(C(=O)N[C@H](CCC(=O)O)C(=O)O)cc1 | 100 nM
52 | Cc1ccc(/C=C/C(=O)NC2CCC(N3CCC(c4ccccc4C)CC3)CC2)cc1C (centres undefined) | 810 nM
53 | O=C(Cn1c(CCc2cccc(F)c2F)nc(=O)c2ccccc21)N(Cc1ccc(-c2ccc(C(F)(F)F)cc2)cc1)C1CCN(C2CCOCC2)CC1 | 740 nM
54 | CCOC(=O)CCCOc1cc(Cc2cnc(N)nc2N)cc(OC)c1OC | 240 nM
55 | Cc1ccc(Nc2nccc(NCC(O)c3cccc(F)c3)n2)cc1 (centres undefined) | 670 nM
56 | CCCCc1cc(NCc2ccncc2)nc(Nc2ccc(OC)cc2)n1 | 1060 nM
57 | COc1ccc(NC(=O)NC2CCN(CCCCCNC(=O)/C=C/c3ccc(Cl)c(Cl)c3)C2)c(OC)c1 (centres undefined) | 820 nM
58 | O=C(O)c1ccc(OCOCOc2ccc(C(=O)O)c(O)c2)cc1O | 190 nM
59 | OC(COCc1ccc(-c2ccccc2)cc1)CN1CCCCC1 (centres undefined) | 270 nM
60 | Cc1cc(N[C@@H](Cc2ccccc2)C(=O)NCCOc2ccccc2)nc(NCCc2ccc(F)cc2)n1 | 600 nM
61 | Cc1ccc(-c2ccn(Cc3ccc(OCc4ccccc4)cc3)n2)cn1 (tested in a mixture with another compound) | 670 nM
62 | CC[C@H](NC(=O)c1c(N)c(-c2sccc2Cl)nc2ccccc12)c1ccccc1 | 910 nM
63 | Cc1cccc2[nH]c(-c3cccc(-c4ccc(NC(=O)COc5ccccc5C(N)=O)cc4)c3)nc12 | 890 nM
64 | COc1ccc2nccc([C@@H](O)CN3CCC(NCc4cc5cc(OC(F)(F)F)ccc5[nH]4)CC3)c2c1 | 130 nM
65 | Cc1ccc(Cn2nc(Cl)c(N3CCCNCC3)cc2=O)cc1NC(=O)Nc1ccc(-c2ccccc2)cc1 | 670 nM
66 | O=S(=O)(c1ccccc1)n1ccc2cc(Nc3ncnc4cc(C#C[C@H]5CCCN5)sc34)ccc21 | 1070 nM
67 | CN1C(=O)C(=O)N(CCCCCON=C(N)N)C1=S | 200 nM
68 | N#Cc1ccc(C=Cc2nccc3c2[nH]c2ccccc23)cc1 | 640 nM
69 | Cc1cc(-c2nc3ccc(N4CCN(C)CC4)cc3[nH]2)nn1Cc1cc(Cl)ccc1OCC(C)C | 880 nM
70 | C#CCN(Cc1ccc2nc(N)[nH]c(=O)c2c1)c1ccc(C(=O)N[C@@H](CCC(=O)O)C(=O)O)cc1 | 220 nM
71 | O=C(Nc1ccc(C(=O)N2CCN(CCN3CCN(c4cccc(C(F)(F)F)c4)CC3)CC2)cc1)c1ccc(C(F)(F)F)cc1 | 690 nM
72 | CCc1cn2c3c(cc(C(=O)N[C@@H](Cc4ccccc4)[C@H](O)CNCC(C)C)cc13)N(C)S(=O)(=O)CC2 | 40 nM

Row | SMILES | IC50
73 | COC(=O)c1sc(-c2ccc(Cl)cc2)cc1N(CCCN1CCC(N2CCCCC2)CC1)S(=O)(=O)c1ccc(C)cc1 | 740 nM
74 | O=C(/C=C/c1ccc(Cl)c(Cl)c1)NCCCCCN1CCC(NC(=O)Nc2ccc3c(c2)OCO3)CC1 | 710 nM
75 | N#Cc1ccc(-c2ccc(C(=O)NCC3CCN(CCN4CCC(c5ccc6c(c5OCC(N)=O)CCCC6)CC4)CC3)cc2)cc1 | 440 nM
76 | Fc1ccc2nc(-c3ccc(-c4ccc(CNCCc5cccnc5)cc4)s3)[nH]c2c1 | 240 nM
77 | Cc1c(S(=O)(=O)Nc2ccc3nccc(N4C[C@@H](C)N[C@@H](C)C4)c3c2)sc2ccc(Cl)cc12 | 1020 nM
78 | CC[C@H]1CN2CC[C@@H]1C[C@H]2[C@H](O)c1cc(N2CCOCC2)nc2ccc(OC)cc12 | 120 nM
79 | OCC(c1ccccc1)n1c(COc2ccc(Cl)cc2)nc2c(OCCCN3CCCCC3)cccc21 (centres undefined) | 920 nM
80 | c1ccc(CN2CCC(NCc3ccc(-c4ccc(CNCc5cccnc5)cn4)cc3)CC2)cc1 | 880 nM
81 | CCc1nc2c(cnn2CC)c(NC2CCOCC2)c1CNC(=O)N1CCOCC1 | 890 nM
82 | CN1CCN(CCCCNc2c3ccccc3nc3ccccc23)CC1 | 700 nM
83 | COC(=O)CCCCOc1c(OC)cc(Cc2cnc(N)nc2N)cc1OC | 40 nM
84 | CC(C)Cc1nc(N2CCOCC2)c2nnn(Cc3ccccc3)c2n1 | 510 nM
85 | N#Cc1cccc(CN(Cc2ccc(Cl)c(Cl)c2)S(=O)(=O)c2cccc([N+](=O)[O-])c2)c1 | 810 nM
86 | N#Cc1ccc(NC(=O)Nc2ccc(OC(F)(F)F)cc2)cc1 | 820 nM
87 | CCc1cn2c3c(cc(C(=O)N[C@@H](Cc4cc(F)cc(F)c4)[C@H](O)CNC4CC4)cc13)N(C)S(=O)(=O)CC2 | 120 nM
88 | CCN(CC)C(=NCCCCCCN=C(/N=C(\N)Nc1ccc(Cl)c(Cl)c1)N(CC)CC)/N=C(\N)Nc1ccc(Cl)c(Cl)c1 | 760 nM
89 | O=C1OC2(CN1CC1CCN(Cc3ccc(O)c(Cl)c3)CC1)c1ccccc1-c1ccccc12 | 760 nM
90 | Cc1nc2ccc(Nc3nccc(-c4c(-c5cccc(NC(=O)c6c(F)cccc6F)c5)nn5ccccc45)n3)cc2nc1C | 1070 nM
91 | COc1ccc2nccc(N3CCN(CCNCc4ccc5c(n4)NC(=O)CO5)CC3)c2n1 | 880 nM
92 | O=C(c1cc(-c2ccco2)[nH]n1)N1CCN(S(=O)(=O)c2ccc(Cl)cc2)CC1 | 360 nM
93 | CN(CCN)Cc1cccc(-c2cccc(-c3nc4ccc(F)cc4[nH]3)c2)c1 | 790 nM
94 | Cc1cccc2[nH]c(-c3cccc(-c4ccc(CNCCc5ccncc5)cc4)c3)nc12 | 120 nM
